Test results from US20220235057A1, “CYCLIC FORMYL AND CYCLIC KETONE COMPOUNDS, PREPARATION METHOD THEREFOR, AND PHARMACEUTICAL USE” (priority 2019, published 2022).
≈ marks a conversion by molar mass, not a printed value.

Key:
Format in all cases: cell-based
Usutu virus (USUV) = assay: anti-Usutu virus activity (inhibition rate); details: Usutu virus
Zika virus (ZIKV) = assay: anti-Zika virus activity (inhibition rate); details: Zika virus; Drug concentration 11 μM
dengue virus (DENV) = assay: anti-dengue virus activity (EC50)
Zika virus = assay: anti-Zika virus activity (EC50)
[1] = system: drug resistant strains of Acinetobacter baumannii; assay: anti-drug resistant strains of Acinetobacter baumannii (MIC)

SMILES | EC50 (dengue virus (DENV)) [nM] | other results
O=C1[C@@H]2CCc3ccccc3N2[C@@H](Cc2ccccc2)N1Nc1ccc([N+](=O)[O-])cc1 [ZXD-107A] | 120 | inhibition at 11 µM (Usutu virus (USUV); Drug concentration 11 μM): < 0%; inhibition at 33 µM (Usutu virus (USUV); Drug concentration 33 μM): < 0%; inhibition at 11 µM (Zika virus (ZIKV)): > 100%
COc1cc(C2N(Nc3ccccc3)C(=O)C3CCc4ccccc4N32)ccc1O[Si](C)(C)C(C)(C)C (stereo not drawn) [ZXD-142A] | 1600 | EC50 (Zika virus): 1560 ± 210 nM
O=C1[C@@H]2CCc3ccccc3N2[C@@H](Cc2ccc([N+](=O)[O-])cc2)N1Nc1ccccc1 [ZXD-100B] | 850 | 
COc1ccc([C@H]2N(Nc3ccc([N+](=O)[O-])cc3)C(=O)[C@@H]3Cc4ccccc4N32)cc1OC [ZDL-89] | 11600 | 
O=C1[C@@H]2CCc3ccccc3N2[C@@H](c2ccc([N+](=O)[O-])cc2)N1Nc1ccc([N+](=O)[O-])cc1 [ZXD-78A] | 170 | 
COc1ccc([C@H]2N(Nc3ccc([N+](=O)[O-])cc3)C(=O)[C@@H]3Cc4ccccc4N32)cc1O[Si](C)(C)C(C)(C)C [ZDL-93] | 24800 | 
COc1ccc(C2c3c([nH]c4ccccc34)C(=O)N2Nc2ccc([N+](=O)[O-])cc2)cc1OC (stereo not drawn) [ZFD-33A + B] |  | EC50 (Zika virus): 17200 nM
O=C(NNc1ccc([N+](=O)[O-])cc1)C1CCc2ccccc2N1 (stereo not drawn) [ZXD-45] | 310 | 
O=C1[C@@H]2CCc3ccccc3N2[C@@H](c2ccccc2O)N1Nc1ccccc1 [ZXD-120B] | 6500 | 
O=C1[C@H]2CCc3ccccc3N2C(Cc2ccc([N+](=O)[O-])cc2)N1Nc1ccccc1 (stereo partly drawn) [ZXD-100A] | 2000 | 
O=C(NNc1ccccc1)C1CCc2ccccc2N1 (stereo not drawn) [ZXD-44] | 1500 | MIC ([1]; resistant strain of Acinetobacter baumannii no. 17): 4 µg/mL (≈ 15 µM); MIC ([1]; resistant strain of Acinetobacter baumannii no. 18): 8 µg/mL (≈ 29.9 µM); MIC ([1]; resistant strain of Acinetobacter baumannii no. 19): 8 µg/mL (≈ 29.9 µM); MIC ([1]; resistant strain of Acinetobacter baumannii no. 20): 2 µg/mL (≈ 7.48 µM)
O=C1C2CCc3ccccc3N2C(c2ccc(Cl)cc2)N1Nc1ccccc1 (stereo not drawn) [ZXD-87A] |  | EC50 (Zika virus): 3400 ± 380 nM
O=C1C2CCCCN2C(c2ccco2)N1c1ccc([N+](=O)[O-])cc1 (stereo not drawn) [ZBJ-12A] | 1200 | 
